Results reported in patent US10111874B2, “Combination therapies for treatment of cancer” (Araxes Pharma LLC, priority 2014, dated 2018).
Note: test concentration or dose not given here.

These molecules were tested against T1, KRAS G12C 1-169, his-tagged protein, GDP-loaded (Homo sapiens, UniProt P01116, G12C) (assay: Biochemical assay: covalent binding to KRAS G12C analyzed by mass spectrometry). Details: compounds 1-47, measured at 24 h.
T1 construct: KRAS G12C 1-169, his-tagged protein, GDP-loaded
T1 sequence (P01116 1-169 isoform P01116-2 G12C): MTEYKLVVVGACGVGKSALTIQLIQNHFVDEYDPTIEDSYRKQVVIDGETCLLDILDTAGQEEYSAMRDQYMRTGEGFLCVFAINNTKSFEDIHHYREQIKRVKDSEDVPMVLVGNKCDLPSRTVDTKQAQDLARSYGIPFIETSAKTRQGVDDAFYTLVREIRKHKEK
For C=CC(=O)N1CCN(c2ncnc3cc(Cl)c(-c4ccncc4)cc23)CC1 [Compound I-17, 1-(4-(7-chloto-6-(pyridin-4-yl)quinazolin-4-yl)piperazin-1-yl)prop-2-en-1-one], the Binding % was “+ (+indicates binding activity from 5% to 25%)”.
In the case of C=CC(=O)N1CCN(c2ncnc3cc(Cl)c(-c4ccc(Cl)c(Cl)c4)cc23)CC1 [Compound I-7, 1-(4-(7-chloro-6-(3,4-dichlorophenyl)quinazolin-4-yl)piperazin-1-yl)prop-2-en-1-one], the Binding % is reported as “++++ (++++indicates binding activity greater than 75%)”.
With C=CC(=O)N1CC(N2CCN(C(=O)CNc3cc(Cl)c(Cl)cc3O)CC2)C1 [Example 38, 1-(3-(4-(2-(4,5-dichloro-2-hydroxyphenylamino)acetyl)piperazin-1-yl)azetidin-1-yl)prop-2-en-1-one] the Binding % was “++ (++indicates binding activity greater than 25% and up to 50%)”.
C=CC(=O)N1CCC(Nc2ncnc3cc(Cl)c(-c4ccccc4Cl)cc23)CC1 [Compound I-2, 1-(4-(7-chloro-6-(2-chlorophenyl)quinazolin-4-ylamino)piperidin-1-yl)prop-2-en-1-one] was tested, and the Binding % was “+ (+indicates binding activity from 5% to 25%)”.
For C=CS(=O)(=O)N1CCN(c2ncnc3cc(Cl)c(-c4ccc(Cl)cc4)cc23)CC1 [Compound I-45, 7-chloro-6-(4-chlorophenyl)-4-(4-(vinylsulfonyl)piperazin-1-yl)quinazoline], the Binding % was “+ (+indicates binding activity from 5% to 25%)”.

Same assay, conditions: compounds 48-246, measured at 2 h
With C=CC(=O)N1CCN(c2ncnc3cc(Cl)c(C4CC4)cc23)CC1C#N (centres unmarked) [Compound I-55, 1-acryloyl-4-(7-chloro-6-cyclopropylquinazolin-4-yl)piperazine-2-carbonitrile] the Binding % was “++++ (++++indicates binding activity greater than 75%)”.
C=CC(=O)N1CCN(c2ncnc3cc(-c4ccccc4F)c(Cl)cc23)CC1C(N)=O (centres unmarked) [Compound I-120, 1-acryloyl-4-(6-chloro-7-(2-fluorophenyl)quinazolin-4-yl)piperazine-2-carboxamide] was tested, and the Binding % was “+++ (+++indicates binding activity greater than 50% and up to 75%)”.
In the case of C=CC(=O)N1CCN(c2ncnc3cc(-c4ccc(Cl)cc4)c(Cl)cc23)CC1CC#N (centres unmarked) [Compound I-110, 2-(1-acryloyl-4-(6-chloro-7-(4-chlorophenyl)quinazolin-4-yl)piperazin-2-yl)acetonitrile], the Binding % is reported as “+++ (+++indicates binding activity greater than 50% and up to 75%)”.
In the case of C=CC(=O)N1CCN(c2ncnc3cc(-c4cc(NC(C)=O)ccc4F)c(Cl)cc23)CC1 [Compound I-174, N-(3-(4-(4-acryloylpiperazin-1-yl)-6-chloroquinazolin-7-yl)-4-fluorophenyl)acetamide], the Binding % is reported as “++ (++indicates binding activity greater than 25% and up to 50%)”.
With C=CC(=O)N1CCN(c2ncnc3c(F)c(-c4c(O)cccc4F)c(Cl)cc23)CC1 [Compound I-227, 1-(4-(6-chloro-8-fluoro-7-(2-fluoro-6-hydroxyphenyl)quinazolin-4-yl)piperazin-1-yl)prop-2-en-1-one] the Binding % was “++++ (++++indicates binding activity greater than 75%)”.
With C=CC(=O)N1CCN(c2c(C#N)cnc3cc(-c4cc(O)ccc4F)c(Cl)cc23)CC1 [Compound I-196, 4-(4-acryloylpiperazin-1-yl)-6-chloro-7-(2-fluoro-5-hydroxyphenyl)quinoline-3-carbonitrile] the Binding % was “++++ (++++indicates binding activity greater than 75%)”.
With C#Cc1ccccc1-c1cc2ncnc(N3CCN(C(=O)C=C)CC3)c2cc1Cl [Compound I-154, 1-(4-(6-chloro-7-(2-ethynylphenyl)quinazolin-4-yl)piperazin-1-yl)prop-2-en-1-one] the Binding % was “++ (++indicates binding activity greater than 25% and up to 50%)”.
With C=CC(=O)N1CCN(c2ncnc3c(F)c(-c4ccccc4C(F)(F)F)c(Cl)cc23)CC1CC#N (centres unmarked) [Compound I-243, 2-(1-acryloyl-4-(6-chloro-8-fluoro-7-(2-(trifluoromethyl)phenyl)quinazolin-4-yl)piperazin-2-yl)acetonitrile] the Binding % was “++++ (++++indicates binding activity greater than 75%)”.

Same assay, conditions: compounds 247-342, measured at 30 min
In the case of C=CC(=O)N1CCN(c2ncnc3cc(-c4cc(O)cc5ccccc45)c(Cl)cc23)CC1 [Compound I-251, 1-(4-(6-chloro-7-(3-hydroxynaphthalen-1-yl)quinazolin-4-yl)piperazin-1-yl)prop-2-en-1-one], the Binding % is reported as “++++ (++++indicates binding activity greater than 75%)”.
In the case of C=CC(=O)N1CCN(c2nc(OCCCN(C)C)nc3cc(-c4c(C)ccc5[nH]ncc45)c(Cl)cc23)CC1 [Compound 329, 1-(4-(6-chloro-2-(3-(dimethylamino)propoxy)-7-(5-methyl-1H-indazol-4-yl)quinazolin-4-yl)piperazin-1-yl)prop-2-en-1-one], the Binding % is reported as “++ (++indicates binding activity greater than 25% and up to 50%)”.
With C=CC(=O)N1CCN(c2nc(NC)nc3c(F)c(-c4c(C)ccc5[nH]ncc45)c(Cl)cc23)CC1 [Compound I-257, 1-(4-(6-chloro-8-fluoro-7-(5-methyl-1H-indazol-4-yl)-2-(methylamino)quinazolin-4-yl)piperazin-1-yl)prop-2-en-1-one] the Binding % was “++++ (++++indicates binding activity greater than 75%)”.
In the case of C=CC(=O)N1CCN(c2c(C#N)cnc3cc(-c4c(O)ccc5ccccc45)c(Cl)cc23)CC1 [Compound I-260, 4-(4-acryloylpiperazin-1-yl)-6-chloro-7-(2-hydroxynaphthalen-1-yl)quinoline-3-carbonitrile], the Binding % is reported as “++ (++indicates binding activity greater than 25% and up to 50%)”.
C=CC(=O)N1CCN(c2cnnc3cc(-c4c(C)ccc5[nH]ncc45)c(C(F)(F)F)cc23)CC1 [Compound 305, 1-(4-(7-(5-methyl-1H-indazol-4-yl)-6-(trifluoromethyl)cinnolin-4-yl)piperazin-1-yl)prop-2-en-1-one] was tested, and the Binding % was “++ (++indicates binding activity greater than 25% and up to 50%)”.
C=CC(=O)N1CCN(c2nc(OCCN(C)C)nc3c(F)c(-c4c(C)ccc5[nH]ncc45)c(Cl)cc23)CC1 [Compound 323, 1-(4-(6-chloro-2-(2-(dimethylamino)ethoxy)-8-fluoro-7-(5-methyl-1H-indazol-4-yl)quinazolin-4-yl)piperazin-1-yl)prop-2-en-1-one] was tested, and the Binding % was “+++ (+++indicates binding activity greater than 50% and up to 75%)”.

Same assay, conditions: determined at 2 hrs
In the case of C=CC(=O)N1CC(N2CCN(C(=O)CNc3cc(C4CC4)c(Cl)cc3O)CC2C)C1 (centres unmarked) [II-60, 1-(3-(4-(2-((4-Chloro-5-cyclopropyl-2-hydroxyphenyl)amino)acetyl)-2-methylpiperazin-1-yl)azetidin-1-yl)prop-2-en-1-one], the Binding % is reported as “++ (++indicates binding activity greater than 20%)”.

Same assay, conditions: determined at 24 hrs
C=CC(=O)N1CCC(N2CCN(C(=O)CNc3cc(Cl)c(Cl)cc3O)CC2)C1 (centres unmarked) [II-2, 1-(3-(4-(2-(4,5-dichloro-2-hydroxyphenyl-amino)acetyl)piperazin-1-yl)pyrrolidin-1-yl)prop-2-en-1-one] was tested, and the Binding % was “+++ (+++indicates binding activity greater than 25% and up to 50%)”.
With C=CC(=O)N1CCN(C(=O)c2cc(-c3ccc(Cl)cc3Cl)c[nH]2)CC1 [III-32, 1-(4-(4-(2,4-Dichlorophenyl)-1H-pyrrole-2-carbonyl)piperazin-1-yl)prop-2-en-1-one] the Binding % was “++++ (++++indicates binding activity greater than 30%)”.
C=CC(=O)N1CC(N2CCN(C(=O)CCc3cc(Cl)c(Cl)cc3O)CC2)C1 [II-6, 1-(3-(4-(3-(4,5-dichloro-2-hydroxyphenyl)-propanoyl)piperazin-1-yl)azetidin-1-yl)prop-2-en-1-one] was tested, and the Binding % was “+ (+indicates binding activity from 5% to 15%)”.
